The record followed here is US9522177B2, “Antimicrobial and immunostimulatory system comprising an oxidoreductase enzyme” (Institute of Technology Sligo, priority 2006, dated 2016).

In series [1] the test system is clinical isolates of Mastitis causing Staphylococcus aureus. Kind of series: Inhibition assay (3 day repeats), mastitis isolates. The settings on record: for sensitivity of clinical isolate number 15: Mastitis causing Staphylococcus aureus isolate number 15, FIG. 11b. The series is classed as cell-based. How it is done:
22 isolates of Staphylococcus aureus from clinical mastitis obtained from Sligo regional Veterinary Laboratories are grown on nutrient agar or in nutrient broth for 24 hrs at 37° C.
Agar plates are inoculated by swabbing overnight culture onto the plate surface. Plates are allowed to stand at room temperature for 15 minutes before use. Wells 8.2 mm diameter are bored into the surface of the agar. One hundred and eighty μl of sample is placed into each well. The samples diffuse into the agar around the well and are assayed for an ability to produce a zone of inhibition. Plates are incubated for 24, 48 or 72 hrs and zones of inhibition are measured using an Autodata automatic zone reader. The diameter of zones, including the diameter of the well (8.2 mm), is recorded.

Series [2] has as its system L929 cells. The series can be described thus: ISO 10993-5 agar overlay cytotoxicity (neutral red). Conditions: positive control, 24 hrs. How it is done:
ISO 10993, agar overlay tests for cytotoxicity: in vitro method is also used, employing L929 cells (mouse fibroblasts ECACC 85011425). In brief; a confluent monolayer of cells is incubated, this is then covered with a layer fresh medium (EMEM, 2 mM L-Glutamine, 5% FBS, 2% Penicillin-Streptomycin) containing 1.5 g/l of soft agar and allowed to solidify. One tenth of the surface is covered with test materials (previously described) and incubated for 24 hrs. Post incubation the test material is carefully removed and a vital stain (neutral red) in fresh media added. After incubation this is removed, the cells washed and then the dye extracted from the cells and quantified spectrophotometrically for cell viability.
Percent toxicity was calculated according to the formula: % Toxicity=1−(OD average of test material wells/average OD of corresponding control wells (sodium azide added))×100. Included in the assay are a 50% concentration of A^3IS, a range of concentrations of commercial silver containing gel and commercial zinc containing gel product, compared to sodium azide (positive control). […] For the agar overlay toxicity assay the amount of test materials used was similar to that used for the initial direct contact assays of 100 mg per well however the contact time was extended to 24 hrs.

With `O=C(N[C@H](CO)[C@H](O)c1ccc([N+](=O)[O-])cc1)C(Cl)Cl` [Chloramphenicol], the “sensitivity of clinical isolate number 15” value (“sensitivity” below) in series [1] is reported as “only mild sensitivity”. In the case of `[H]/N=C(/N)N[C@H]1[C@H](O)[C@@H](O)[C@H](O[C@@H]2O[C@@H](C)[C@](O)(C=O)[C@H]2O[C@@H]2O[C@@H](CO)[C@H](O)[C@@H](O)[C@@H]2NC)[C@@H](N/C(N)=N\[H])[C@@H]1O` [Streptomycin], the “sensitivity” value in series [1] is recorded as “resistant”. On to `CN[C@H](CC(C)C)C(=O)N[C@H]1C(=O)N[C@@H](CC(N)=O)C(=O)N[C@H]2C(=O)N[C@H]3C(=O)N[C@H](C(=O)N[C@H](C(=O)O)c4cc(O)cc(O)c4-c4cc3ccc4O)[C@H](O)c3ccc(c(Cl)c3)Oc3cc2cc(c3O[C@@H]2O[C@H](CO)[C@@H](O)[C@H](O)[C@H]2O[C@H]2C[C@](C)(N)[C@H](O)[C@H](C)O2)Oc2ccc(cc2Cl)[C@H]1O` [Vancomycin], for which, in series [1], the “sensitivity” value is recorded as “resistant”.

As for `[N-]=[N+]=[N-]` [sodium azide], the “% Toxicity” value in series [2] came out at 100%. With Nisin [2% Nisin], the “resistant colonies in zone of inhibition assays” value in series [1] (FIG. 11e) is “resistant colony within the zone of inhibition”.
